Like-named read-outs stand apart in the source and are kept apart here.
Legend:
p53–CBP interaction = conditions: at 50 μM; cited from earlier work
CBP BRD = conditions: cited from earlier work
[1] = system: p53-induced p21 activation; conditions: luciferase reporter-gene assay; read-out: Inhibition of p53-induced p21 activation IC50; cited from earlier work
CBP [2] = conditions: cited from earlier work
BRD4(1) [3] = conditions: cited from earlier work
[4] = system: GFP-tagged 3 × CBP BRD construct; assay: Fluorescence recovery after photo-bleaching (FRAP) assay; conditions: HeLa cells, SAHA-treated, compound 0.1 μM
BRD4(1) [5] = target: T1, BRD4(1) (Homo sapiens, UniProt O60885); assay: DSF (ΔTm) thermal stability assay; assay type: binding; conditions: compound concentration 10 μM, mean ± SEM (number of measurements)
CBP [6] = target: T2, CBP (Homo sapiens, UniProt Q92793); assay: Peptide displacement AlphaScreen; assay type: binding
T2 sequence (Q92793 1085-1192 limits assumed): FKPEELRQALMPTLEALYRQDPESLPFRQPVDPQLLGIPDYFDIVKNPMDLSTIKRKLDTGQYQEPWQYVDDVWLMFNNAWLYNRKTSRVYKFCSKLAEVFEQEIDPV

CBP [7] = target: T2, CBP; assay: DSF (ΔTm) thermal stability assay; assay type: binding; conditions: compound concentration 10 μM, mean ± SEM (number of measurements)
BRD4(1) [8] = target: T1, BRD4(1); assay: Peptide displacement AlphaScreen; assay type: binding
ATAD2 [9] = target: T3, ATAD2 (Homo sapiens, UniProt Q6PL18); assay: DSF (ΔTm) thermal stability assay; assay type: binding; conditions: compound 10 µM
T3 construct: using recombinant BRDs as surrogates of full-length protein
T3 sequence (Q6PL18 980-1092 limits assumed): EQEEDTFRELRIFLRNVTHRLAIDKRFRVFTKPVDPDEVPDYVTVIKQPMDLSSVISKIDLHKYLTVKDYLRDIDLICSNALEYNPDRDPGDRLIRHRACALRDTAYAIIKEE

ATAD2 [10] = target: T3, ATAD2; assay: Peptide displacement AlphaScreen; assay type: binding
p300 = target: T4, p300 (Homo sapiens, UniProt Q09472); assay: Isothermal titration calorimetry (ITC); conditions: from ITC Kd values
T4 sequence (Q09472 1049-1156 limits assumed): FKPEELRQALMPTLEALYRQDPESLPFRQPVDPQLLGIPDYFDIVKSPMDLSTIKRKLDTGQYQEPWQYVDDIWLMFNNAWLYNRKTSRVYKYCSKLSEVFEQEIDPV

BRD4(1) [11] = target: T1, BRD4(1); assay: Isothermal titration calorimetry (ITC)
CBP [12] = target: T2, CBP; assay: Isothermal titration calorimetry (ITC)
[13] = mean ± SEM (number of measurements), read-out: CBP AlphaScreen pIC50 (converted)

In the case of `CC(=O)n1c2c(c3ccccc31)CCCC2=O` [Compound 1], the “Effect on the p53–CBP interaction in a competition assay” value (p53–CBP interaction) is listed as “block” and the Kd (CBP BRD) is listed as 19600 nM.
For `Cc1cc(/N=N/c2cc(S(=O)(=O)O)c(C)cc2C)c(N)cc1O` [Compound 2], the IC50 [1] is given as 5000 nM.
For `COc1ccc2c(c1)N(CCCNC(=O)c1cccc3c1N[C@H](C)C(=O)N3)CCC2` [Compound 4], the Kd (CBP BRD) is given as 390 nM.
For `Cc1noc(C)c1-c1ccc2nc[nH]c2c1` [Compound 5], the “CBP pIC50” value (CBP [2]) is given as 5.4 and the “BRD4(1) pIC50” value (BRD4(1) [3]) is given as 5.2.
In the case of `Cc1noc(C)c1-c1ccc2ncn(Cc3ccc(C#N)cc3)c2c1` [Compound 6], the “CBP pIC50” value (CBP [2]) is given as under 4.0, the “FRAP half-time of fluorescence recovery (t1/2), GFP-tagged 3× CBP BRD” value [4] is given as 0.74 s and the “BRD4(1) pIC50” value (BRD4(1) [3]) is given as 6.7.
For `Cc1noc(C)c1-c1ccc2c(c1)ncn2Cc1ccc(Cl)cc1` [Compound 7], the “CBP pIC50” value (CBP [2]) is listed as 5.7.
Compound `Cc1noc(C)c1-c1ccc2c(c1)nc(CC(C)(C)C)n2CCN(C)C` [Compound 8] has a ΔTm at 10 µM (BRD4(1) [5]) of 3.2 °C, an IC50 (CBP [6]; [13]) of 501 nM and a ΔTm at 10 µM (CBP [7]) of 4.5 °C.
In the case of `Cc1noc(C)c1-c1ccc2c(c1)nc(CCc1ccccc1)n2CCN(C)C` [Compound 12], the ΔTm at 10 µM (BRD4(1) [5]) is reported as 2.9 °C, the IC50 (CBP [6]; [13]) is reported as 501 nM and the ΔTm at 10 µM (CBP [7]) is reported as 6.3 °C.
In the case of `COC(Cn1c(CCc2ccccc2)nc2cc(-c3c(C)noc3C)ccc21)OC` [Compound 13], the IC50 (CBP [6]; read-out: AlphaScreen IC50 CBP) is reported as 460000 nM and the ΔTm at 10 µM (CBP [7]) is reported as 0.27 °C.
`Cc1noc(C)c1-c1ccc2c(c1)nc(CCc1ccccc1)n2CCN1CCC1` [Compound 14] gave a ΔTm at 10 µM (BRD4(1) [5]) of 2.6 °C, an IC50 (BRD4(1) [8]) of 22000 nM and an IC50 (CBP [6]; read-out: AlphaScreen IC50 CBP) of 570 nM. It also gave a ΔTm at 10 µM (CBP [7]) of 4.4 °C.
With `Cc1noc(C)c1-c1ccc2c(c1)nc(CCc1ccccc1)n2CCN1CCOCC1` [Compound 17] the ΔTm at 10 µM (ATAD2 [9]) was 0.16 °C, the ΔTm at 10 µM (BRD4(1) [5]) was 2.1 °C and the “DSF ΔTm BRD4(1)” value (BRD4(1) [5]; 10 µM) was 2.7 °C. For the same compound, the IC50 (ATAD2 [10]) was 42000 nM, the “FRAP half-time of fluorescence recovery (t1/2), GFP-tagged 3× CBP BRD” value [4] was 0.66 s and the IC50 (BRD4(1) [8]) was 9800 nM. For the same compound, the “Selectivity for p300 over BRD4(1)” value (p300) was 2.7 fold, the IC50 (CBP [6]; [13]) was 158 nM and the IC50 (CBP [6]; read-out: AlphaScreen IC50 CBP) was 820 nM. For the same compound, the ΔTm at 10 µM (CBP [7]) was 3.9 °C, the “DSF ΔTm CBP” value (CBP [7]; 10 µM) was 6.5 °C and the Kd (BRD4(1) [11]; ITC Kd BRD4(1), 15 °C) was 950 ± 44 nM. The “Selectivity for CBP over BRD4(1)” value (BRD4(1) [11]; from ITC Kd values) was 3.0 fold.
In the case of `Cc1noc(C)c1-c1ccc2c(c1)nc(CCc1ccccc1)n2CCN1CCNCC1` [Compound 19], the ΔTm at 10 µM (BRD4(1) [5]) is reported as 4 °C, the IC50 (BRD4(1) [8]) is reported as 7500 nM and the IC50 (CBP [6]; read-out: AlphaScreen IC50 CBP) is reported as 750 nM. For the same compound, the ΔTm at 10 µM (CBP [7]) was 6.5 °C.
In the case of `Cc1noc(C)c1-c1ccc2c(c1)nc(CCc1ccccc1)n2CCN1CCSCC1` [Compound 20], the ΔTm at 10 µM (BRD4(1) [5]) is reported as 3.9 °C, the IC50 (BRD4(1) [8]) is reported as 9500 nM and the IC50 (CBP [6]; read-out: AlphaScreen IC50 CBP) is reported as 440 nM. The ΔTm at 10 µM (CBP [7]) was 6.6 °C.
For `Cc1ccc(CCc2nc3cc(-c4c(C)noc4C)ccc3n2CCN2CCOCC2)cc1` [Compound 25], the “ITC N (molar binding ratio of the ligand-protein interaction), CBP” value (CBP [12]) was 1.02 ± 0.00208, the “ITC ∆G, CBP” value (CBP [12]) was -9.63 kcal/mol and the “ITC ∆H, CBP” value (CBP [12]) was -9.70 ± 0.0399 kcal/mol. For the same compound, the “ITC 9T∆S, CBP” value (CBP [12]; At T = 298.15 K) was 0.0674 kcal/mol, the Kd (CBP [12]; ITC Ka, CBP) was 49.5 nM and the ΔTm at 10 µM (CBP [7]) was 7.4 °C. For the same compound, the “ITC N (molar binding ratio of the ligand-protein interaction), BRD4(1)” value (BRD4(1) [11]) was 0.987 ± 0.0033, the “ITC ∆G, BRD4(1)” value (BRD4(1) [11]) was -8.24 kcal/mol and the “ITC ∆H, BRD4(1)” value (BRD4(1) [11]) was -8.74 ± 0.0402 kcal/mol. For the same compound, the “ITC 9T∆S, BRD4(1)” value (BRD4(1) [11]; At T = 298.15 K) was 0.501 kcal/mol and the Kd (BRD4(1) [11]; ITC Ka, BRD4(1)) was 546 nM.
